Legend:
[1] = system: VZV (varicella zoster virus, strain ELLEN); assay: VZV antiviral assay (plaque reduction in WI-38 cell culture monolayers); type: cell-based; details: Human alphaherpesvirus 3, WI-38 monolayers, 6-7 days incubation at 37° C., at least a 50% plaque reduction compared to virus controls, read-out: ID50 (the source's name)
Procedure: (§1) Assays were performed in cell culture systems to determine the concentrations of compounds that are effective in […] several kinds of viral infections. The assays are described below, and the results are presented in Table 1. |HSV-1 (herpes simplex virus type 1, strain Schooler), VZV |(varicella zoster virus, strain ELLEN). |Cell Culture Assays: |HSV-1 and VZV antiviral assays: Virus was adsorbed to |WI-38 cell culture monolayers in 6 well culture plates (Costar, |Cambridge, MA) for 1 hour prior to addition of maintenance |medium containing duplicate dilutions of the test compound. |Inhibition of plaque development was evaluated on fixed and |stained monolayers after 4 days incubation at 37° C. for HSV-1 |and after 6-7 days incubation at 37° C. for VZV. ID50 values |were determined from the drug concentration which conferred at |least a 50% plaque reduction compared to virus controls.

[2] = system: HSV-1 (herpes simplex virus type 1, strain Schooler); assay: HSV-1 antiviral assay (plaque reduction in WI-38 cell culture monolayers); type: cell-based; details: Human alphaherpesvirus 1, 96 h; HSV-1 strain Schooler; WI-38 monolayers; 4 days incubation at 37° C.; at least a 50% plaque reduction compared to virus controls; read-out: ID50 (the source's name)
Procedure: as §1, with “VZV” for “VZV |(varicella zoster virus, strain ELLEN).”

O=c1[nH]c(=O)n([C@@H]2C[C@H](CO)[C@H]2CO)cc1/C=C/Br [Compound 1, [1R-(1α(E),2β,3α)]-1-[2,3-bis(hydroxymethyl)cyclobutyl]-5-(2-bromoethenyl)-2,4(1H,3H)-pyrimidinedione]
IC50 [1]: 0.06 to 0.15 µM
IC50 [2]: 0.3 µM

— USH1142H, “Optically active cyclobutyl pyrimidine” (priority 1990, dated 1993)
